Tests used:
A431 cells = assay: A431 growth assay (2% FBS); assay type: cell-based; details: Homo sapiens, A-431, read-out: A431 growth (2% FBS) IC50
SKOV3 cells = assay: SKOV3 growth assay (2% FBS); assay type: cell-based; details: Homo sapiens, SK-OV-3, read-out: SKOV3 growth (2% FBS) IC50
EGFR = EGFR (Homo sapiens, UniProt P00533); assay: Biochemical EGFR assay (ELISA, A431 cell lysate); parameters: A431 cell lysate (Screening Lab, SUGEN, Inc.); host or cells: A431; details: read-out: bio EGFr IC50
Sequence of EGFR (P00533 25-1210): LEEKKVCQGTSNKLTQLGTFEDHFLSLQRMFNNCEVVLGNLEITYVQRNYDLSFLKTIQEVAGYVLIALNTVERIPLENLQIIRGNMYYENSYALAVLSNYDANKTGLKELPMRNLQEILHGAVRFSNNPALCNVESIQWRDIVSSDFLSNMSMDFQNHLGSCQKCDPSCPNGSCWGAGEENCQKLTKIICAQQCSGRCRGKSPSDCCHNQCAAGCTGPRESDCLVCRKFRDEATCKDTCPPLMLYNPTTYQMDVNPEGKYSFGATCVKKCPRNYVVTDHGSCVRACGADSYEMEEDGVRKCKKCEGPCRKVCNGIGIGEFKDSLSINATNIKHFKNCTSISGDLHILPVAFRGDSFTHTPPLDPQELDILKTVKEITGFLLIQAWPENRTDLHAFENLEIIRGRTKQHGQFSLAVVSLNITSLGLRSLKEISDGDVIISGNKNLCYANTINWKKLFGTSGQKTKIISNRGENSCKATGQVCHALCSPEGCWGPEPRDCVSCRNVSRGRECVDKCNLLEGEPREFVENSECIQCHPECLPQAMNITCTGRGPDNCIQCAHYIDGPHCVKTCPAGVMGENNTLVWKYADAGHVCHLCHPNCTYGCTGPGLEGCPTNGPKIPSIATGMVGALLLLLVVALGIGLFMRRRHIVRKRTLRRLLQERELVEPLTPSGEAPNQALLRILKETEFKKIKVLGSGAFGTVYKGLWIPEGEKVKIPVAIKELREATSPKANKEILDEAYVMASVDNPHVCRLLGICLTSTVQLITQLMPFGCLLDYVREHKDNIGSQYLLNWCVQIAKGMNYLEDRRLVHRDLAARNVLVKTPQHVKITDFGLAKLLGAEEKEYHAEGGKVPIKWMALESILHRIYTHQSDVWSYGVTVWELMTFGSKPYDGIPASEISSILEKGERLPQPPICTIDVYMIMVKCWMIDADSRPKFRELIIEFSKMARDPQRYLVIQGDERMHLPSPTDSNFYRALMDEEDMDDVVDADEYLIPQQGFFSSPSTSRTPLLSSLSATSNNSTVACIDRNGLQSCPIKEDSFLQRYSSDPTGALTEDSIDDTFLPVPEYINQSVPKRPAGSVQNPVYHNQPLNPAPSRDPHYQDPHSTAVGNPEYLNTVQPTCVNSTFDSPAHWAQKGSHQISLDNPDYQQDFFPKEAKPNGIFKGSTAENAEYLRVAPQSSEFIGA
Outline: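 EGFR captured from A431 cell lysate onto anti-EGFR-coated plates, then incubated with test compound for 30 min at room temperature. Tyrosine phosphorylation with ATP/MnCl2 was stopped with EDTA after 5 min and detected by anti-phosphotyrosine ELISA with peroxidase/ABTS read-out.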

| IC50 (A431 cells) | IC50 (SKOV3 cells) | IC50 (EGFR) | SMILES |
| --- | --- | --- | --- |
| 11 µM | > 25 µM | > 100 µM | COc1ccc(C=C2C(=O)Nc3cc(NC(C)=O)ccc32)cc1-c1cccc(NC(C)=O)c1 (mixture of isomers) [Example 63, N-[3-(3′-Acetylamino-6-methoxybiphenyl-3-ylmethylene)-2-oxo-2,3-dihydro-1H-indol-6-yl]-acetamide] |
|  |  | > 100 µM | COc1ccc2c(c1)NC(=O)/C2=C/c1ccc(OC)c(-c2ccsc2)c1 [Example 64, 6-Methoxy-3-(4-methoxy-3-thiophen-3-ylbenzylidene)-1,3-dihydroindol-2-one] |
|  |  | 7.9 µM | O=C1Nc2ncccc2/C1=C\c1ccc2c(c1)CCO2 [Example 73, 3-(2,3-Dihydrobenzofuran-5-ylmethylene)-1,3-dihydropyrrolo[2,3-b]pyridin-2-one] |
|  |  | > 100 µM | COc1c(C(C)C)cc(/C=C2/C(=O)Nc3cc(NC(=O)OC(C)(C)C)ccc32)cc1C(C)C [Example 52, [3-(3,5-Diisopropyl-4-methoxybenzylidene)-2-oxo-2,3-dihydro-1H-indol-6-yl]-carbamic acid tert-butyl ester] |
|  |  | > 100 µM | COc1ccc(/C=C2/C(=O)Nc3ccccc32)cc1-c1ccccc1 [Example 65, 3-(6-Methoxybiphenyl-3-ylmethylene)-1,3-dihydroindol-2-one] |
|  |  | > 100 µM | COc1c(C(C)C)cc(/C=C2\C(=O)Nc3cccc(C)c32)cc1C(C)C [Example 53, 3-(3,5-Diisopropyl-4-methoxybenzylidene)-4-methyl-1,3-dihydroindol-2-one] |
|  |  | > 100 µM | COc1ccc(/C=C2/C(=O)Nc3ccc(F)cc32)cc1C(C)C [Example 44, 5-Fluoro-3-(3-isopropyl-4-methoxybenzylidene)-1,3-dihydroindol-2-one] |
|  |  | > 100 µM | O=C1Nc2ccc(Cl)cc2/C1=C\c1ccc2c(c1)CCO2 [Example 14, 5-Chloro-3-(2,3-dihydro-benzofuran-5-ylmethylene)-1,3-dihydroindol-2-one] |
|  |  | > 100 µM | COc1ccc(/C=C2/C(=O)Nc3ccc(F)cc32)cc1C1CCCCC1 [Example 43, 3-(3-Cyclohexyl-4-methoxybenzylidene)-5-fluoro-1,3-dihydroindol-2-one] |
|  |  | > 100 µM | COc1ccc(/C=C2/C(=O)Nc3ccc(F)cc32)cc1-c1ccccc1 [Example 37, 5-Fluoro-3-(6-methoxybiphenyl-3-ylmethylene)-1,3-dihydroindol-2-one] |
|  |  | > 100 µM | Cc1cc(CCC(=O)O)c(/C=C2\C(=O)Nc3cc(-c4ccc(F)cc4)ccc32)[nH]1 [Example 107, 3-{2-[6-(4-Fluorophenyl)-2-oxo-1,2-dihydroindol-3-ylidenemethyl]-5-methyl-1H-pyrrol-3-yl}propionic acid] |
| 3.2 µM |  | 24 µM | COc1cc(C)c(/C=C2/C(=O)Nc3ncccc32)cc1C(C)C [Example 45, 3-(5-Isopropyl-4-methoxy-2-methylbenzylidene)-1,3-dihydro-pyrrolo[2,3-b]pyridin-2-one] |
|  | > 20 µM | 10.1 µM | COc1c(C)cc(/C=C2/C(=O)Nc3ncccc32)cc1C [Example 56, 3-(4-Methoxy-3,5-dimethylbenzylidene)-1,3-dihydropyrrolo[2,3-b]pyridin-2-one] |
|  |  | > 100 µM | Cc1cccc2c1/C(=C/c1cc3ccccc3[nH]1)C(=O)N2 [Example 166, 3-(1H-indol-2-ylmethylene)-4-methyl-1,3-dihydro-indol-2-one] |
|  | 14.5 µM | > 100 µM | COc1ccc(/C=C2/C(=O)Nc3ccc(Cl)cc32)cc1C1CCCCC1 [Example 51, 5-Chloro-3-(3-cyclohexyl-4-methoxybenzylidene)-1,3-dihydroindol-2-one] |
|  |  | > 100 µM | Cc1cccc2c1/C(=C/c1ccc3c(c1)CCO3)C(=O)N2 [Example 69, 3-(2,3-Dihydrobenzofuran-5-ylmethylene)-4-methyl-1,3-dihydroindol-2-one] |
|  |  | > 100 µM | O=C1Nc2ccccc2/C1=C\c1ccc2c(c1)CCO2 [Example 66, 3-(2,3-Dihydrobenzofuran-5-ylmethylene)-1,3-dihydroindol-2-one] |
|  |  | > 100 µM | COc1ccc(/C=C2/C(=O)Nc3ccc(Cl)cc32)cc1-c1ccccc1 [Example 67, 5-Chloro-3-(6-methoxybiphenyl-3-ylmethylene)-1,3-dihydroindol-2-one] |
|  |  | > 100 µM | O=C1Nc2ccc(F)cc2/C1=C\c1ccc2c(c1)CCO2 [Example 42, 3-(2,3-Dihydrobenzofuran-5-ylmethylene)-5-fluoro-1,3-dihydroindol-2-one] |
|  |  | > 100 µM | COc1c(C(C)C)cc(/C=C2/C(=O)Nc3cc(F)ccc32)cc1C(C)C [Example 22, 3-(3,5-Diisopropyl-4-methoxybenzylidene)-6-fluoro-1,3-dihydroindol-2-one] |

| IC50 (A431 cells) | IC50 (SKOV3 cells) | IC50 (EGFR) | SMILES |
| --- | --- | --- | --- |
|  |  | > 100 µM | CCc1ccc2c(c1)/C(=C\c1cc(C(C)C)c(OC)c(C(C)C)c1)C(=O)N2 [Example 28, 3-(3,5-Diisopropyl-4-methoxbenzylidene)-5-ethyl-1,3-dihydroindol-2-one] |
|  |  | > 100 µM | COc1ccc(/C=C2\C(=O)Nc3cccc(C)c32)cc1C1CCCC1 [Example 48, 3-(3-Cyclopentyl-4-methoxybenzylidene)-4-methyl-1,3-dihydroindol-2-one] |
|  |  | > 100 µM | Cc1cccc2c1/C(=C/c1ccc3c(c1)CCC(C)(C)O3)C(=O)N2 [Example 41, 3-(2,2-Dimethylchroman-6-ylmethylene)-4-methyl-1,3-dihydroindol-2-one] |
|  |  | > 100 µM | CC(=O)Nc1ccc2c(c1)NC(=O)/C2=C/c1ccc(OCCN2CCOCC2)c(C(C)(C)C)c1 [Example 55, N-{3-[3-tert-Butyl-4-(2-morpholin-4-ylethoxy)-benzylidene]-2-oxo-2,3-dihydro-1H-indol-6-yl}-acetamide] |
|  |  | > 100 µM | COc1ccc(/C=C2\C(=O)Nc3cccc(C)c32)cc1C1CCCCC1 [Example 68, 3-(3-Cyclohexyl-4-methoxybenzylidene)-4-methyl-1,3-dihydroindol-2-one] |
|  |  | > 100 µM | Cc1cc(CCC(=O)O)c(/C=C2\C(=O)Nc3ccc(Cl)cc32)[nH]1 [Example 111, 3-[2-(5-Chloro-2-oxo-1,2-dihydroindol-3-ylidenemethyl)-5-methyl-1H-pyrrol-3-yl]propionic acid] |
|  |  | > 100 µM | COc1c(C(C)C)cc(/C=C2/C(=O)Nc3cc(N)ccc32)cc1C(C)C [Example 32, 6-Amino-3-(3,5-diisoprotyl-4-methoxy-benzylidene)-1,3-dihydroindol-2-one] |
|  |  | > 100 µM | COc1ccccc1-c1ccc2c(c1)NC(=O)/C2=C\c1[nH]c(C)cc1CCC(=O)O [Example 109, 3-{2-[6-(2-Methoxyphenyl)-2-oxo-1,2-dihydroindol-3-ylidenemethyl]-5-methyl-1H-pyrrol-3-yl}-propionic acid] |
|  |  | 29.6 µM | COc1ccc(/C=C2/C(=O)Nc3ncccc32)cc1-c1ccccc1 [Example 71, 3-(6-Methoxybiphenyl-3-ylmethylene)-1,3-dihydropyrrolo[2,3-b]pyridin-2-one] |
|  |  | > 100 µM | COc1ccc(/C=C2\C(=O)Nc3cccc(C)c32)cc1C(C)C [Example 38, 3-(3-Isopropyl-4-methoxybenzylidene)-4-methyl-1,3-dihydroindol-2-one] |
|  |  | > 100 µM | CC(=O)Nc1ccc2c(c1)NC(=O)/C2=C/c1ccc(OCCN2CCOCC2)c(-c2ccsc2)c1 [Example 50, N-{3-[4-(2-Morpholin-4-ylethoxy)-3-thiophen-3-ylbenzylidene]-2-oxo-2,3-dihydro-1H-indol-6-yl}-acetamide] |
|  |  | 13.2 µM | COc1c(C(C)C)cc(/C=C2/C(=O)Nc3ncccc32)cc1C(C)C [Example 74, 3-(3,5-Diisopropyl-4-methoxybenzylidene)-1,3-dihydropyrrolo[2,3-b]pyridin-2-one] |
| 2.2 µM | 2.6 µM |  | COc1c(C(C)C)cc(/C=C2/C(=O)Nc3cc(NC(C)=O)ccc32)cc1C(C)C [Example 3, N-[3-(3,5-Diisopropyl-4-methoxybenzylidene)-2-oxo-2,3-dihydro-1H-indol-6-yl]-acetamide] |
|  |  | > 100 µM | CCOC(=O)c1c(C)[nH]c(/C=C2\C(=O)Nc3cc(-c4ccccc4OC)ccc32)c1CCC(=O)O [Example 110, 4-(2-Carboxyethyl)-5-[6-(2-methoxyphenyl)-2-oxo-1,2-dihydro-indol-3-ylidenemethyl]-2-methyl-1H-pyrrol-3-yl-carboxylic acid ethyl ester] |
|  |  | > 100 µM | O=C1Nc2ccc(Br)cc2/C1=C/c1cc2ccccc2[nH]1 [Example 165, 5-Bromo-3-(1H-indol-2-ylmethylene)-1,3-dihydro-indol-2-one] |
|  |  | 22.6 µM | COc1ccc(/C=C2/C(=O)Nc3ncccc32)cc1C(C)C [Example 70, 3-(3-Isopropyl-4-methoxybenzylidene)-1,3-dihydropyrrolo[2,3-b]pyridine-2-one] |
|  |  | > 100 µM | CNS(=O)(=O)c1ccc2c(c1)C(=Cc1[nH]c3ccccc3c1C)C(=O)N2 (racemic) [Example 154, 3-(3-Methyl-1H-indol-2-ylmethylene)-2-oxo-2,3-dihydro-1H-indole-5-sulfonic acid methylamide] |
|  |  | > 100 µM | CCOC(=O)c1c(C)[nH]c(/C=C2\C(=O)Nc3cc(-c4ccc(F)cc4)ccc32)c1CCC(=O)O [Example 108, 4-(2-Carboxyethyl)-5-[6-(4-fluorophenyl)-2-oxo-1,2-dihydro-indol-3-ylidenemethyl]-2-methyl-1H-pyrrole-3-carboxylic acid ethyl ester] |
|  |  | > 100 µM | COc1c(C(C)C)cc(/C=C2/C(=O)Nc3ccc(Br)cc32)cc1C(C)C [Example 54, 5-Bromo-3-(3,5-diisopropyl-4-methoxybenzylidene)-1,3-dihydroindol-2-one] |
|  |  | 11.8 µM | COc1ccc(/C=C2/C(=O)Nc3ncccc32)cc1C1CCCCC1 [Example 72, 3-(3-Cyclohexyl-4-methoxybenzylidene)-1,3-dihydropyrrolo[2,3-b]pyridin-2-one] |
